How the values were obtained:
zebrafish embryos [1] = assay: Brain size, morphology and volume of zebrafish embryos (microscopy, MRI); type: in vivo; conditions: for volume of the whole brain compared to untreated fish: MRI; for head size compared to untreated embryos: microscopic pictures; for brain size: day 2
Procedure: An aqueous solution of a 25-mer antisense morpholino oligonucleotide (AMO, Gene Tools, LLC) corresponding to the vicinity of the translation initiation codon in the cDNA sequence of the gene to be knocked down ([…] injection conditions were the same as those used for RNA) was injected into the embryos at the 1-cell stage. The sequence of AMO used for the CRBN gene knockdown is 5′-[…]-3′ (SEQ ID NO: 3). The sequence of AMO used for the Lhx2 gene knockdown is 5′-[…]-3′ (SEQ ID NO:4). The sequence of AMO used for the BRD7 gene knockdown is 5′-[…]-3′ (SEQ ID NO:1). The sequence of AMO used for the Ikaros gene knockdown is 5′-[…]-3′ (SEQ ID NO:2). […]
In order to examine the effect of antagonists of BRD7 on brain growth, BRD7 was knocked down or over-expressed in zebrafish embryos. Knockdown of BRD7 was performed by microinjection of antisense morpholino oligonucleotides (AMO). Overexpression of BRD7 was performed by microinjection of synthesized capped mRNA. AMO or capped mRNA was introduced into one-cell stage embryos by using a nitrogen gas-pressure microinjector IM 300 (Narishige). Conditions for microinjection were as follows: gas pressure was about 15 picosiemens; release period was about 30 to about 50 milliseconds per single injection; concentrations of AMOs and capped mRNA were 400 ng/μl and 250 ng/μl in nuclease-free water, respectively. Capped mRNAs were synthesized in vitro using the mMESSAGE mMachine® in vitro transcription kit (Ambion) from cDNAs cloned into pCS2+ plasmids.
The brains of the embryos were examined for morphology and volume by magnetic resonance imaging (MRI). FIGS. 9A, 9B, and 9C show microscopic pictures of the untreated, the BRD7-knockdown, and the BRD7-overexpressing zebrafish embryos, respectively. FIGS. 9D, 9E, and 9F show fluorescent microscopic pictures of the brain regions of the untreated, the BRD7-knockdown, and the BRD7-overexpressing zebrafish embryos, respectively. As shown in these figures, the BRD7-knockdown zebrafish embryos had bigger heads than the untreated embryos. […] The volume of the whole brain of the BRD7-knockdown fish was much bigger than that of the untreated fish, while for the BRD7-overexpressing fish, the brain volume was smaller.
In order to examine the effect of antagonists of Ikaros on brain growth, Ikaros was knocked down or over-expressed in zebrafish embryos. Knockdown of Ikaros was performed by microinjection of antisense morpholino oligonucleotides (AMO). Overexpression of Ikaros was performed by injection of synthesized capped mRNA. AMO or capped mRNA was introduced into one-cell stage embryos by using a nitrogen gas-pressure microinjector IM 300 (Narishige). Conditions for microinjection were as follows: gas pressure was about 15 picosiemens; release period was about 30 to about 50 milliseconds per single injection; concentrations of AMOs and capped mRNA were 400 ng/μl and 250 ng/μl in nuclease-free water, respectively. Capped mRNAs were synthesized in vitro using the mMESSAGE mMachine® in vitro transcription kit (Ambion) from cDNAs cloned into pCS2+ plasmids.
The brains of the embryos were examined for morphology and volume by magnetic resonance imaging (MRI). FIGS. 15A, 15B, and 15C show microscopic pictures of untreated, Ikaros-knockdown, and Ikaros-overexpressing zebrafish embryos at 55 hpf, respectively. As shown in these figures, the Ikaros-knockdown fish had bigger heads than the untreated embryos. […] The volume of the whole brain of the Ikaros-knockdown fish was much bigger than that of the untreated fish, while for the Ikaros-overexpressing fish, the brain volume was smaller.

zebrafish embryos [2] = assay: Immunostaining of neurons, proliferating cells, glia and serotonin-positive cells in zebrafish; type: in vivo; conditions: for numbers of serotonin-positive cells / numbers of radial glia cells: 54-55 hpf; for numbers of radial glia cells: Zrf-2
Procedure: Antibody staining of early neurons of zebrafish was performed by the following technique. The embryos 24 to 28 hours after fertilization were fixed at 4° C. for 12 hours in a 4% paraformaldehyde/phosphate buffer (pH 8.0). After washing four times with phosphate buffer, where each wash was performed for 15 minutes, blocking was carried out at normal temperature for one hour in 5% newborn goat serum dissolved in 0.5% Triton X-100/phosphate buffer. Primary antibody reaction was carried out using a monoclonal anti-acetylated tubulin antibody diluted at 1:1000 in the same solution at 4° C. for 12 hours. Then, after washing the embryos similarly with phosphate buffer, secondary antibody reaction was carried out using an anti-mouse antibody conjugated with Alexa Fluoro 488 (Molecular Probes) under the same conditions as those applied in the primary antibody reaction. The embryos were then washed with phosphate buffer and transparentized in 30%/50%/70% glycerol (dissolved in phosphate buffer), and then observed with a fluorescent microscope under excitation at 488 nm.
Two-days-old zebrafish were used (for glia cell staining and serotonin-producing cell staining, zebrafish 56 hours and 49 hours after fertilization were used, respectively). Zebrafish were fixed with 4% paraformaldehyde (PFA) and then washed with phosphate buffer (PBS), followed by treatment with 10 μg/ml protease K for partial digestion of the epidermis. After the digestion reaction, the zebrafish were washed with PBST (PBS+0.5% Triton X-100) for 20 minutes and then fixed with PFA again. The fixed zebrafish were washed with PBST at room temperature for one hour, followed by blocking using PBST+5% goat serum. The resulting specimens were reacted with a monoclonal anti-glia antibody (zrf-1/zrf-2) or a rabbit anti-serotonin antibody at 4° C. overnight (12 to 18 hours). Subsequently, the specimens were washed with PBST+5% goat serum for one hour at room temperature, and secondary antibody reaction was carried out by substituting the antibody for a goat anti-mouse IgG antibody (Cy-2 conjugate for glia cell staining) or a goat anti-rabbit IgG antibody (Cy-5 conjugate for serotonin-producing cell staining) at 4° C. overnight (12 to 18 hours). Subsequently, the specimens were washed with PBST at room temperature for one hour. After washing, PBST was replaced by 30%, 50%, and 70% glycerol/PBS, and the whole zebrafish were mounted on glass slides to obtain preparations. Fluorescence was observed under excitation wavelength of Cy-2 and Cy-5, and the distribution of the glia cells or the serotonin-producing cells was recorded. Glia cells were observed from the lateral side of zebrafish, while the serotonin-producing cells were photographed from the dorsal side in order to observe the distribution of the cells along the midline.
Numbers of primary neurons and proliferating cells were analyzed by immunostaining in untreated and Ikaros-knockdown zebrafish embryos at 27 hpf. FIGS. 17A and 17D show the primary neurons in the CNS of the untreated and the Ikaros-knockdown zebrafish embryos, respectively, at 27 hpf by immunostaining with anti-acetylated tubulin antibody. FIGS. 17B and 17E show the proliferating cells in the CNS of the untreated and the Ikaros-knockdown zebrafish embryos, respectively, at 27 hpf by immunostaining with anti-phospho-histone H3 antibodies. […] Global distribution of the primary neurons was normal as shown (scale bar: 50 μm).
The number of phosphorylated histone H3-positive cells was counted in a stacked focal plane of laser confocal microscope at 27 hpf. The average number of the H3-positive cells in the telencephalon, the diencephalon, and the midbrain was statistically compared between the untreated and the Ikaros-knockdown embryos (n=3 in each experiment).
The numbers of radial glial cells and matured neurons were analyzed in untreated and CRBN-overexpressing zebrafish embryos. […]

Substance	volume of the whole brain compared to untreated fish (zebrafish embryos [1])	head size compared to untreated embryos (zebrafish embryos [1])	brain size (zebrafish embryos [1])	numbers of serotonin-positive cells (zebrafish embryos [2])	numbers of radial glia cells (zebrafish embryos [2])	brain development (zebrafish embryos [1]; 22 hpf)	number of the primary neurons in the CNS (zebrafish embryos [2]; 27 hpf, anti-acetylated tubulin)	number of the proliferating cells in the CNS (zebrafish embryos [2]; 27 hpf, anti-phospho-histone H3)	number of H3-positive proliferating cells in telencephalon, diencephalon and midbrain (zebrafish embryos [2]; 27 hpf, n=3)
5′-TGTGTTTCTTGTGCTTTTTGCCCAT-3′ (all phosphorodiamidate morpholino (PMO)) [BRD7-knockdown, 25-mer antisense morpholino oligonucleotide (AMO) used for the BRD7 gene knockdown]	much bigger	bigger heads	–	–	–	–	–	–	–
5′-AGAGCTGTAGCTGGTTCCCCATTTC-3′ (all phosphorodiamidate morpholino (PMO)) [CRBN-knockdown, 25-mer antisense morpholino oligonucleotide (AMO) used for the CRBN gene knockdown, reference compound]	–	–	smaller brains	decreased	decreased	–	–	–	–
5′-TTCCTGTGCCTCCTCAGTCTCCATC-3′ (all phosphorodiamidate morpholino (PMO)) [Ikaros-knockdown, 25-mer antisense morpholino oligonucleotide (AMO) used for the Ikaros gene knockdown]	much bigger	bigger heads	enlarged brains	increased	increased	macrocephaly	increased	increased	increased

Source: patent US10272117B2, “Methods of using an activator of cereblon for neural cell expansion and the treatment of central nervous system disorders” (Celgene Corporation, priority 2014, dated 2019)
